Measured values reported in patent US10894797B2, “Fused tricyclic ring derivatives as SRC homology-2 phosphatase inhibitors” (Nikang Therapuetics, Inc., priority 2018, dated 2021).

These compounds were tested against SHP2 (Homo sapiens (Human), UniProt Q06124) (assay: SHP2 allosteric inhibition assay (DiFMUP substrate, bisphos-IRS1 peptide activation)). Conditions: 0.33 nM SHP2, 0.5 μM bisphos-IRS1 peptide, 100 uM DiFMUP, room temperature.
Assay type: biochemical
Description: At the basal state, SHP2 is auto-inhibited and access of substrates to the catalytic site is blocked by the […] interactions between the SH2 domains and the PTP domain. When bis-tyrosyl-phosphorylated peptides bind to SH2 domain of SHP2, the PTP domain becomes available for substrate recognition and reaction catalysis and SHP2 is allosterically activated. SHP2 catalytic activity can be measured using a fluorogenic artificial substrate DiFMUP.
The phosphatase reactions were carried out at room temperature in 384-well black polystyrene plates (Greiner Bio-One, Cat #784076) using assay buffers containing 60 mM HEPES, pH 7.2, 75 mM NaCl, 75 mM KCl, 1 mM EDTA, 0.05% P-20, and 5 mM DTT.
0.33 nM of SHP2 was co-incubated with of 0.5 μM of bisphos-IRS 1 peptide (sequence: H2N-LN(pY)IDLDLV(dPEG8)LST(pY)ASINFQK-amide) and various concentrations of compounds for 30-60 min at room temperature. Then the reaction was initiated by addition of the surrogate substrate DiFMUP (Invitrogen, Cat #D6567, 100 uM final).
The real-time conversion of DiFMUP to DiFMU (6,8-difluoro-7-hydroxyl-4-methyl-coumarin) was measured every 5 min for 30 min using a microplate reader (CLARIOstar, BMG Labtech) with excitation and emission wavelengths of 340 nm and 450 nm, respectively. Initial reaction rates were determined by linear fitting of the data and the inhibitor dose response curves were analyzed using normalized IC50 regression curve fitting with control-based normalization.

Row | Structure (SMILES) | IC50 | Shp2 IC50(nM)
1 | C[C@@H]1OCC2(CCN(c3ncc(Sc4ccnc5c4OC[C@@H]4C[C@H](OC(N)=O)CN54)nc3CO)CC2)[C@@H]1N [Compound 22, (6aS,8S)-4-((5-((3S,4S)-4-amino-3-methyl-2-oxa-8-azaspiro[4.5]decan-8-yl)-6-(hydroxymethyl)pyrazin-2-yl)thio)-6a,7,8,9-tetrahydro-6H-pyrido[3,2-b]pyrrolo[1,2-d]-[1,4]oxazin-8-yl carbamate] | 6 nM | –
2 | C[C@@H]1OCC2(CCN(c3ncc(Sc4ccnc5c4OC[C@@H]4C[C@@H](OC(N)=O)CN54)nc3CO)CC2)[C@@H]1N [Compound 23, (6aS,8R)-4-((5-((3 S,4S)-4-amino-3-methyl-2-oxa-8-azaspiro[4.5]decan-8-yl)-6-(hydroxymethyl)pyrazin-2-yl)thio)-6a,7,8,9-tetrahydro-6H-pyrido[3,2-b]pyrrolo[1,2-d][1,4]oxazin-8-yl Carbamate] | 8 nM | –
3 | C[C@@H]1OCC2(CCN(c3ncc(Sc4ccnc5c4OC[C@@H]4C[C@H](n6cccn6)CN54)nc3CO)CC2)[C@@H]1N [Compound 24, (6-(((6aS,8S)-8-(1H-pyrazol-1-yl)-6a,7,8,9-tetrahydro-6H-pyrido[3,2-b]-pyrrolo[1,2-d][1,4]oxazin-4-yl)thio)-3-((3 S,4S)-4-amino-3-methyl-2-oxa-8-azaspiro[4.5]decan-8-yl)pyrazin-2-yl)methanol] | 10 nM | –
4 | C[C@@H]1OCC2(CCN(c3ncc(Sc4ccnc5c4OC[C@@H]4C[C@@H](n6cccn6)CN54)nc3CO)CC2)[C@@H]1N [Compound 25, (6-(((6aS,8R)-8-(1H-pyrazol-1-yl)-6a,7,8,9-tetrahydro-6H-pyrido[3,2-b]-pyrrolo[1,2-d][1,4]oxazin-4-yl)thio)-3-((3 S,4S)-4-amino-3-methyl-2-oxa-8-azaspiro[4.5]decan-8-yl)pyrazin-2-yl)methanol] | 11 nM | –
5 | C[C@@H]1OCC2(CCN(c3ncc(Sc4ccnc5c4OC[C@H]4COCCN54)nc3CO)CC2)[C@@H]1N [Compound 26, (3-((3S,4S)-4-amino-3-methyl-2-oxa-8-azaspiro[4.5]decan-8-yl)-6-(((R)-6a,7,9,10-tetrahydro-6H-[1,4]oxazino[4,3-d]pyrido[3,2-b][1,4]oxazin-4-yl)thio)pyrazin-2-yl)methanol] | – | one of 26 and 27 is 10 and the other is 8
6 | C[C@@H]1OCC2(CCN(c3ncc(Sc4ccnc5c4OC[C@@H]4COCCN54)nc3CO)CC2)[C@@H]1N [Compound 27, (3-((3S,4S)-4-amino-3-methyl-2-oxa-8-azaspiro[4.5]decan-8-yl)-6-(((S)-6a,7,9,10-tetrahydro-6H-[1,4]oxazino[4,3-d]pyrido[3,2-b][1,4]oxazin-4-yl)thio)pyrazin-2-yl)methanol] | – | one of 26 and 27 is 10 and the other is 8
7 | C[C@@H]1OCC2(CCN(c3ncc(Sc4ccnc5c4OCC4CS(=O)(=O)CCN54)nc3CO)CC2)[C@@H]1N (stereo partly drawn) [Compound 28, 4-((5-((3S,4S)-4-amino-3-methyl-2-oxa-8-azaspiro[4.5]decan-8-yl)-6-(hydroxymethyl)pyrazin-2-yl)thio)-6a,7,9,10-tetrahydro-6H-pyrido[3,2-b][1,4]thiazino[4,3-d][1,4]oxazine 8,8-dioxide] | 13 nM | –
8 | COCCOC[C@H]1C[C@H]2COc3c(Sc4cnc(N5CCC6(CC5)CO[C@@H](C)[C@H]6N)c(CO)n4)ccnc3N2C1 [Compound 32, (3-((3S,4S)-4-amino-3-methyl-2-oxa-8-azaspiro[4.5]decan-8-yl)-6-(((6aS,8S)-8-((2-methoxyethoxy)methyl)-6a,7,8,9-tetrahydro-6H-pyrido[3,2-b]pyrrolo[1,2-d][1,4]oxazin-4-yl)thio)pyrazin-2-yl)methanol] | 4 nM | –
9 | COC[C@H]1C[C@H]2COc3c(Sc4cnc(N5CCC6(CC5)Cc5ncccc5[C@H]6N)c(CO)n4)ccnc3N2C1 [Compound 36, (3-((S)-5-amino-5,7-dihydrospiro[cyclopenta[b]pyridine-6,4′-piperidin]-1′-yl)-6-(((6aS,8S)-8-(methoxymethyl)-6a,7,8,9-tetrahydro-6H-pyrido[3,2-b]pyrrolo[1,2-d][1,4]oxazin-4-yl)thio)pyrazin-2-yl)methanol] | – | One of 36 and 37 is 2.7 and the other is 4.2
10 | COC[C@@H]1C[C@H]2COc3c(Sc4cnc(N5CCC6(CC5)Cc5ncccc5[C@H]6N)c(CO)n4)ccnc3N2C1 [Compound 37, (3-((S)-5-amino-5,7-dihydrospiro[cyclopenta[b]pyridine-6,4′-piperidin]-1′-yl)-6-(((6aS,8R)-8-(methoxymethyl)-6a,7,8,9-tetrahydro-6H-pyrido[3,2-b]pyrrolo[1,2-d][1,4]oxazin-4-yl)thio)pyrazin-2-yl)methanol] | – | One of 36 and 37 is 2.7 and the other is 4.2

The next lines start with results.

Row | IC50 | Structure (SMILES) | Shp2 IC50(nM)
11 | 3.6 nM | COC[C@H]1C[C@H]2COc3c(Sc4cnc(N5CCC6(CC5)CO[C@@H](C)[C@H]6N)c(CO)n4)ccnc3N2C1 [Compound 29, (3-((3S,4S)-4-amino-3-methyl-2-oxa-8-azaspiro[4.5]decan-8-yl)-6-(((6aS,8S)-8-(methoxymethyl)-6a,7,8,9-tetrahydro-6H-pyrido[3,2-b]pyrrolo[1,2-d][1,4]oxazin-4-yl)thio)pyrazin-2-yl)methanol] | –
12 | 3.8 nM | COC[C@@H]1C[C@H]2COc3c(Sc4cnc(N5CCC6(CC5)CO[C@@H](C)[C@H]6N)c(CO)n4)ccnc3N2C1 [Compound 30, (3-((3S,4S)-4-amino-3-methyl-2-oxa-8-azaspiro[4.5]decan-8-yl)-6-(((6aS,8R)-8-(methoxymethyl)-6a,7,8,9-tetrahydro-6H-pyrido[3,2-b]pyrrolo[1,2-d][1,4]oxazin-4-yl)thio)pyrazin-2-yl)methanol] | –
13 | 4.2 nM | COCOC[C@H]1C[C@H]2COc3c(Sc4cnc(N5CCC6(CC5)CO[C@@H](C)[C@H]6N)c(CO)n4)ccnc3N2C1 [Compound 31, (3-((3S,4S)-4-amino-3-methyl-2-oxa-8-azaspiro[4.5]decan-8-yl)-6-(((6aS,8S)-8-((methoxymethoxy)methyl)-6a,7,8,9-tetrahydro-6H-pyrido[3,2-b]pyrrolo[1,2-d][1,4]oxazin-4-yl)thio)pyrazin-2-yl)methanol] | –
14 | 2.3 nM | C[C@@H]1OCC2(CCN(c3ncc(Sc4ccnc5c4OC[C@@H]4C[C@H](COCC6CC6)CN54)nc3CO)CC2)[C@@H]1N [Compound 33, (3-((3S,4S)-4-amino-3-methyl-2-oxa-8-azaspiro[4.5]decan-8-yl)-6-(((6aS,8S)-8-((cyclopropylmethoxy)methyl)-6a,7,8,9-tetrahydro-6H-pyrido[3,2-b]pyrrolo[1,2-d][1,4]oxazin-4-yl)thio)pyrazin-2-yl)methanol] | –
15 | 6.2 nM | C[C@@H]1OCC2(CCN(c3ncc(Sc4ccnc5c4OC[C@@H]4C[C@H](COCC6COC6)CN54)nc3CO)CC2)[C@@H]1N [Compound 34, (3-((3S,4S)-4-amino-3-methyl-2-oxa-8-azaspiro[4.5]decan-8-yl)-6-(((6aS,8S)-8-((oxetan-3-ylmethoxy)methyl)-6a,7,8,9-tetrahydro-6H-pyrido[3,2-b]pyrrolo[1,2-d][1,4]oxazin-4-yl)thio)pyrazin-2-yl)methanol] | –
16 | 18 nM | C[C@@H]1OCC2(CCN(c3ncc(Sc4cc(N)nc5c4OC[C@@H]4CCCN54)nc3CO)CC2)[C@@H]1N [Compound 35, formic acid; (3-((3S,4S)-4-amino-3-methyl-2-oxa-8-azaspiro[4.5]decan-8-yl)-6-(((S)-2-amino-6a,7,8,9-tetrahydro-6H-pyrido[3,2-b]pyrrolo[1,2-d][1,4]oxazin-4-yl)thio)pyrazin-2-yl)methanol] | –
17 | 5.7 nM | COC[C@H]1C[C@H]2COc3c(Sc4cnc(N5CCC6(CC5)COC5(CCC5)[C@H]6N)c(CO)n4)ccnc3N2C1 [Compound 38, (3-((S)-5-amino-13-oxa-9-azadispiro[3.1.5^6.2^4]tridecan-9-yl)-6-(((6aS,8S)-8-(methoxymethyl)-6a,7,8,9-tetrahydro-6H-pyrido[3,2-b]pyrrolo[1,2-d][1,4]oxazin-4-yl)thio)pyrazin-2-yl)methanol] | –
18 | 7 nM | COCOC[C@H]1C[C@H]2COc3c(Sc4cnc(N5CCC6(CC5)COC5(CCC5)[C@H]6N)c(CO)n4)ccnc3N2C1 [Compound 39, (3-((S)-5-amino-13-oxa-9-azadispiro[3.1.5^6.2^4]tridecan-9-yl)-6-(((6aS,8S)-8-((methoxymethoxy)methyl)-6a,7,8,9-tetrahydro-6H-pyrido[3,2-b]pyrrolo[1,2-d][1,4]oxazin-4-yl)thio)pyrazin-2-yl)methanol] | –
19 | 5.9 nM | COCOCOC[C@H]1C[C@H]2COc3c(Sc4cnc(N5CCC6(CC5)CO[C@@H](C)[C@H]6N)c(CO)n4)ccnc3N2C1 [Compound 40, (3-((3 S,4S)-4-Amino-3-methyl-2-oxa-8-azaspiro[4.5]decan-8-yl)-6-(((6aS,8S)-8-(((methoxymethoxy)methoxy)methyl)-6a,7,8,9-tetrahydro-6H-pyrido[3,2-b]pyrrolo[1,2-d][1,4]oxazin-4-yl)thio)pyrazin-2-yl)methanol] | –
20 | 5 nM | C[C@@H]1OCC2(CCN(c3ncc(Sc4ccnc5c4OC[C@@H]4C[C@H](CO)CN54)nc3CO)CC2)[C@@H]1N [Compound 41, (3-((3S,4S)-4-amino-3-methyl-2-oxa-8-azaspiro[4.5]decan-8-yl)-6-(((6aS,8S)-8-(hydroxymethyl)-6a,7,8,9-tetrahydro-6H-pyrido[3,2-b]pyrrolo[1,2-d][1,4]oxazin-4-yl)thio)pyrazin-2-yl)methanol] | –
